Experimental data: PMC5653858, “A single extracellular amino acid in Free Fatty Acid Receptor 2 defines antagonist species selectivity and G protein selection bias” (Scientific Reports, 2017)
Positions count from the first letter of the chain named.

Legend:
Lys^65Arg hFFA2 [1] = biological target: T1, Lys^65Arg hFFA2 (Homo sapiens, UniProt O15552, K65R); test: inositol monophosphate accumulation assay, Lys65Arg hFFA2; assay type: cell-based
T1 construct: NanoLuc Luciferase (N); eYFP; expressed in transfected cells; host or cells: Flp-In T-REx HEK293, doxycycline-induced
T1 sequence (O15552 1-330 K65R): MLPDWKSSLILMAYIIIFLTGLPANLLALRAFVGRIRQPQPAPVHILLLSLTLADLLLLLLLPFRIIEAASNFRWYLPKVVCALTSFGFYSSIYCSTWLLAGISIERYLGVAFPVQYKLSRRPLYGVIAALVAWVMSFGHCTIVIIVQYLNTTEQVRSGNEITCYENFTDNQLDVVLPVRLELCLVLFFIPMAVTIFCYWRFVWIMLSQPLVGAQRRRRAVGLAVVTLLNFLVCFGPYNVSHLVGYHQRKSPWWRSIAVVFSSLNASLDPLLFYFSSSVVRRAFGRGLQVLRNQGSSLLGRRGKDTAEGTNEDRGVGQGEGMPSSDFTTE
Protocol: (§1) All cAMP and inositol monophosphate experiments were performed using Flp-In T-REx HEK293 cells induced to express the receptor of interest. Experiments were carried out using respective homogenous time-resolved FRET-based detection kits (CisBio Bioassays; CisBio, Codolet, France) according to the manufacturer’s protocol. For the cAMP inhibition assay cells were plated at 2000 cells/well in low-volume 384-well plates. The ability of agonists to inhibit 1 μM forskolin-induced cAMP production was assessed following a co-incubation for 30 min with agonist compounds. For the inositol monophosphate accumulation assay cells were plated at 7500 cells/well in low-volume 384-well plates and incubated for 2 h at 37 °C with test compounds. To assess ability of antagonists to inhibit agonist responses, cells were pre-incubated with antagonist compounds for 30 min at 37 °C prior to addition of an EC80 concentration of agonist. Respective reactions were stopped according to the manufacturer’s instructions and the output was measured by with a PHERAstar FS plate reader (BMGLabtech, Aylesbury, UK).

Lys^65Glu hFFA2 [2] = biological target: T2, Lys^65Glu hFFA2 (Homo sapiens, UniProt O15552, K65E); test: inositol monophosphate accumulation assay, Lys65Glu hFFA2; assay type: cell-based
T2 construct: NanoLuc Luciferase (N); eYFP; expressed in transfected cells; host or cells: Flp-In T-REx HEK293, doxycycline-induced
T2 sequence (O15552 1-330 K65E): T1 sequence (O15552 1-330 K65R) with R65E
Protocol: as §1

mFFA2 = biological target: T3, mFFA2 (Mus musculus, UniProt Q8VCK6); test: inositol monophosphate accumulation assay, mFFA2; assay type: cell-based; conditions: EC80 concentration of C3, wild type mFFA2
T3 construct: eYFP; expressed in transfected cells; host or cells: Flp-In T-REx HEK293, doxycycline-induced
T3 sequence (Q8VCK6 1-330): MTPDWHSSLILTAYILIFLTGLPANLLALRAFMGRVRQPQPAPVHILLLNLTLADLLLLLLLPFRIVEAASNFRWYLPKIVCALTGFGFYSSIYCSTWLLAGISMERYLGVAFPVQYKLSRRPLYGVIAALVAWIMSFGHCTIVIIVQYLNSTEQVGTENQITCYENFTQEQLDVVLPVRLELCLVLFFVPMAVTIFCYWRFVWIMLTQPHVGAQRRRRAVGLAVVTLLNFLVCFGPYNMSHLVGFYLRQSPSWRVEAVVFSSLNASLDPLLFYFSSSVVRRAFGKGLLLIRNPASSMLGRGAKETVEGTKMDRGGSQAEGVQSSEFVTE
Protocol: as §1

Arg^65Lys mFFA2 = biological target: T4, Arg^65Lys mFFA2 (Mus musculus, UniProt Q8VCK6, R65K); test: inositol monophosphate accumulation assay, Arg65Lys mFFA2; assay type: cell-based; conditions: concentration-dependent
T4 construct: eYFP; expressed in transfected cells
T4 sequence (Q8VCK6 1-330 R65K): T3 sequence (Q8VCK6 1-330) with R65K
Protocol: as §1

bovine FFA2 = tested on: bovine FFA2; parameters: method as in Hudson et al., unpublished; conditions: bovine FFA2 has Lys at residue 65; ref Hudson et al., unpublished; cited from earlier work
Lys^65Arg hFFA2 [3] = biological target: T1, Lys^65Arg hFFA2; parameters: method as in PMID 26991104; conditions: not compatible with current results; cited from earlier work
hFFA2 [4] = biological target: T5, hFFA2 (Homo sapiens, UniProt O15552); test: inositol monophosphate accumulation assay, wild type hFFA2; assay type: cell-based; parameters: expressed in transfected cells
T5 sequence (O15552 1-330): T1 sequence (O15552 1-330 K65R) with R65K
Protocol: as §1

Lys^65Ala hFFA2 [5] = biological target: T6, Lys^65Ala hFFA2 (Homo sapiens, UniProt O15552, K65A); test: inositol monophosphate accumulation assay, Lys65Ala hFFA2; assay type: cell-based; parameters: NanoLuc Luciferase (N); eYFP; expressed in transfected cells; host or cells: Flp-In T-REx HEK293, doxycycline-induced
T6 sequence (O15552 1-330 K65A): T1 sequence (O15552 1-330 K65R) with R65A
Protocol: as §1

Lys^65Arg hFFA2 [6] = biological target: T1, Lys^65Arg hFFA2; test: HTRF cAMP inhibition assay, Lys65Arg hFFA2; assay type: cell-based; conditions: inhibition of 1 μM forskolin-induced cAMP
Protocol: as §1

Lys^65Glu hFFA2 [7] = biological target: T2, Lys^65Glu hFFA2; test: HTRF cAMP inhibition assay, Lys65Glu hFFA2; assay type: cell-based; conditions: inhibition of 1 μM forskolin-induced cAMP, K65E hFFA2
Protocol: as §1

Lys^65Arg hFFA2 [8] = biological target: T1, Lys^65Arg hFFA2; test: [35S]GTPγS incorporation assay, Lys65Arg hFFA2; assay type: biochemical; conditions: membranes
Protocol: (§2) Initially, 5 μg of generated membrane protein was pre-incubated for 15 min at 25 °C in assay buffer (50 mM Tris-HCl, 10 mM MgCl2; 100 mM NaCl; 1 mM EDTA; 1 μM GDP; 0.1% fatty acid-free bovine serum albumin; pH 7.4) containing the indicated ligand concentrations. […] Unbound radioligand was removed from filters by three washes with ice-cold wash buffer (50 mM Tris-HCl, 10 mM MgCl2; pH 7.4) and filters were dried for 2–3 h at room temperature. Dried filters were added to 3 mL of Ultima Gold^TM XR (PerkinElmer Life Sciences, Beaconsfield, UK) and [^35S]GTPγS binding was determined by liquid scintillation spectrometry.

Lys^65Glu hFFA2 [9] = biological target: T2, Lys^65Glu hFFA2; test: [35S]GTPγS incorporation assay, Lys65Glu hFFA2; assay type: biochemical; conditions: membranes
Protocol: as §2

hFFA2 [10] = biological target: T5, hFFA2; test: HTRF cAMP inhibition assay, wild type hFFA2; assay type: cell-based; parameters: expressed in transfected cells; conditions: inhibition of 1 μM forskolin-induced cAMP
Protocol: as §1

Lys^65Ala hFFA2 [11] = biological target: T6, Lys^65Ala hFFA2; test: HTRF cAMP inhibition assay, Lys65Ala hFFA2; assay type: cell-based; parameters: NanoLuc Luciferase (N); eYFP; expressed in transfected cells; host or cells: Flp-In T-REx HEK293, doxycycline-induced; conditions: inhibition of 1 μM forskolin-induced cAMP, K65A hFFA2
Protocol: as §1

Lys^65Ala hFFA2 [12] = biological target: T6, Lys^65Ala hFFA2; test: [35S]GTPγS incorporation assay, Lys65Ala hFFA2; assay type: biochemical; parameters: NanoLuc Luciferase (N); eYFP; expressed in transfected cells; host or cells: Flp-In T-REx HEK293, doxycycline-induced; conditions: membranes
Protocol: as §2

hFFA2 [13] = biological target: T5, hFFA2; test: [35S]GTPγS incorporation assay, wild type hFFA2; assay type: biochemical; parameters: HA-tag (C); expressed in transfected cells; host or cells: HEK293, parental and CRISPR/Cas9 G protein-deleted lines, transient transfection; conditions: membranes
Protocol: as §2

O=C(O)C[C@H](Cc1ccc(C(F)(F)F)cc1)NC(=O)Cc1cccc(Cl)c1 [CATPB, (S)-3-(2-(3-chlorophenyl)acetamido)-4-(4-(trifluoromethyl)phenyl)butanoic acid]
ability to block compound 1-mediated elevation of inositol monophosphate accumulation at Lys65Arg hFFA2 (Lys^65Arg hFFA2 [1]; EC80 concentration of compound 1): all but abolished
IC50 (Lys^65Arg hFFA2 [1]; against an EC80 concentration of compound 1, K65R hFFA2, read-out: pIC50 to inhibit inositol monophosphate response, K65R (converted)): > 31600 nM
IC50 (Lys^65Glu hFFA2 [2]; against an EC80 concentration of compound 1, K65E hFFA2, read-out: pIC50 to inhibit inositol monophosphate response, K65E (converted)): > 31600 nM
effect on C3-stimulated inositol monophosphate production at mFFA2 (mFFA2): unaffected
antagonism of C3-mediated inositol monophosphate accumulation at Arg65Lys mFFA2 (Arg^65Lys mFFA2): fully antagonize
binding to bovine FFA2 (bovine FFA2): does not bind CAPTB with high affinity
antagonism of C3 at Lys65Arg hFFA2 (Lys^65Arg hFFA2 [3]): effective and competitive antagonist
IC50 (hFFA2 [4]; against an EC80 concentration of compound 1, wild type hFFA2, read-out: pIC50 to inhibit inositol monophosphate response, WT (converted)): 19.1 nM
IC50 (Lys^65Ala hFFA2 [5]; against an EC80 concentration of compound 1, K65A hFFA2, read-out: pIC50 to inhibit inositol monophosphate response, K65A (converted)): 437 nM

Cc1nc(NC(=N)N)sc1-c1cccc(NC(=O)c2ccc(F)cc2)c1 [AZ1729, N-[3-(2-carbamimidamido-4-methyl-1,3-thiazol-5-yl)phenyl]-4-fluoro benzamide]
inositol monophosphate production via Lys65Arg hFFA2 (Lys^65Arg hFFA2 [1]): unable to promote inositol monophosphate production
inositol monophosphate production via Lys65Glu hFFA2 (Lys^65Glu hFFA2 [2]): unable to promote inositol monophosphate production
pEC50 cAMP, K65R (Lys^65Arg hFFA2 [6]): 6.47 ± 0.15
pEC50 cAMP, K65E (Lys^65Glu hFFA2 [7]): 6.45 ± 0.15
pEC50 GTPγS, K65R (Lys^65Arg hFFA2 [8]): 6.79 ± 0.07
pEC50 GTPγS, K65E (Lys^65Glu hFFA2 [9]): 6.79 ± 0.12
accumulation of inositol monophosphates via hFFA2 (hFFA2 [4]; wild type hFFA2): unable to promote accumulation of inositol monophosphates
pEC50 cAMP, WT (hFFA2 [10]): 6.35 ± 0.13
inositol monophosphate production via Lys65Ala hFFA2 (Lys^65Ala hFFA2 [5]): unable to promote inositol monophosphate production
pEC50 cAMP, K65A (Lys^65Ala hFFA2 [11]): 6.42 ± 0.03
pEC50 GTPγS, K65A (Lys^65Ala hFFA2 [12]): 6.94 ± 0.14
pEC50 GTPγS, WT (hFFA2 [13]): 6.97 ± 0.02
